Assay results: US8822503B2, “2-pyridone compounds” (Taisho Pharmaceutical Co., Ltd, priority 2009, dated 2014)

molecular target: T1, human liver GK (Homo sapiens, UniProt P35557); test: GK activation test; type: biochemical; details: test compound concentration needed to activate 50% of maximum activation ability; 4 mM 14C-labeled glucose, 2 mM ATP, room temperature, 20 minutes
T1 construct: GST (glutathione S-transferase) (N); made in house; host or cells: E. coli
T1 sequence (P35557 1-466 isoform P35557-2): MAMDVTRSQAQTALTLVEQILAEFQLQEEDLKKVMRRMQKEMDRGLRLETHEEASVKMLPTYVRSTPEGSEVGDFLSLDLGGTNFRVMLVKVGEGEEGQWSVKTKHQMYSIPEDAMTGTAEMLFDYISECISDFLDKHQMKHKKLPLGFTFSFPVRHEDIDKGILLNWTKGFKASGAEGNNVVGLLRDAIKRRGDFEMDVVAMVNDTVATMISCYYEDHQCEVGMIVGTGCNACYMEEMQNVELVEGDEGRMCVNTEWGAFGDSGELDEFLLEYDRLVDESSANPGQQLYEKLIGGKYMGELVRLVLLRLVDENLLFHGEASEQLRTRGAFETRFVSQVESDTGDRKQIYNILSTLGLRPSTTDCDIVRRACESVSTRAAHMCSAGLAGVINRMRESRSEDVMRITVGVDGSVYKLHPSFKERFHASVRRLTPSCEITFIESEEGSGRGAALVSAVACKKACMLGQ
Summary of the method: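 GST-tagged human liver GK from E. coli (0.24 μg/well) with 4 mM 14C-glucose, 2 mM ATP in Hepes-KOH pH 7.1, KCl, MgCl2, DTT, 1% DMSO, 20 min room temperature. Labeled glucose 6-phosphate captured on anion resin, eluted and counted. EC50 = concentration giving half of maximal activation.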

Question: For `CCc1ccc(/C(=C/C2CCCC2)c2ccc(S(C)(=O)=O)c(Cl)c2)[nH]c1=O` [Example 1-21, 6-{(E)-1-[3-Chloro-4-(methylsulfonyl)phenyl]-2-cyclopentylethenyl}-3-ethylpyridin-2(1H)-one], which EC50 is on record?
Answer: Its EC50 is 10 to 500 nM.

Question: Which EC50 does the source give for `Cc1ccc(/C(=C/C2CCCC2)c2ccc(SCCCO)c(Cl)c2)[nH]c1=O` [Example 1-22, 6-[(E)-1-{3-Chloro-4-[(3-hydroxypropyl)sulfanyl]phenyl}-2-cyclopentylethenyl]-3-methylpyridin-2(1H)-one] here?
Answer: Its EC50 is 10 to 500 nM.

Question: With `Cc1ccc(/C(=C/C2CCCC2)c2ccc(S(=O)(=O)CCCO)c(Cl)c2)[nH]c1=O` [Example 1-23, 6-[(E)-1-{3-Chloro-4-[(3-hydroxypropyl)sulfonyl]phenyl}-2-cyclopentylethenyl]-3-methylpyridin-2(1H)-one] as the compound, how does the EC50 read?
Answer: The EC50 was 10 to 500 nM.

Question: For `CCN(CC)CCCSc1ccc(/C(=C\C2CCCC2)c2ccc(C)c(=O)[nH]2)cc1Cl` [Example 1-24, 6-[(E)-1-(3-Chloro-4-{[3-(diethylamino)propyl]sulfanyl}phenyl)-2-cyclopentylethenyl]-3-methylpyridin-2(1H)-one], which EC50 is on record?
Answer: The EC50 was 10 to 500 nM.

Question: How did the EC50 turn out when `CCN(CC)CCCS(=O)(=O)c1ccc(/C(=C\C2CCCC2)c2ccc(C)c(=O)[nH]2)cc1Cl` [Example 1-25, 6-[(E)-1-(3-Chloro-4-{[3-(diethylamino)propyl]sulfonyl}phenyl)-2-cyclopentylethenyl]-3-methylpyridin-2(1H)-one] was run?
Answer: The EC50 was 500 to 3000 nM.

Question: How did the EC50 turn out when `CCc1ccc(/C(=C/C2CCCC2)c2ccc(SCCCN(CC)CC)c(Cl)c2)[nH]c1=O` [Example 1-26, 6-[(E)-1-(3-Chloro-4-{[3-(diethylamino)propyl]sulfanyl}phenyl)-2-cyclopentylethenyl]-3-ethylpyridin-2(1H)-one] was run?
Answer: Its EC50 is 10 to 500 nM.

Question: With `CCc1ccc(/C(=C/C2CCCC2)c2ccc(S(=O)(=O)CCCN(CC)CC)c(Cl)c2)[nH]c1=O` [Example 1-27, 6-[(E)-1-(3-Chloro-4-{[3-(diethylamino)propyl]sulfonyl}phenyl)-2-cyclopentylethenyl]-3-ethylpyridin-2(1H)-one] as the compound, how does the EC50 read?
Answer: Its EC50 is 10 to 500 nM.

Question: `CS(=O)(=O)c1ccc(/C(=C\C2CCCC2)c2ccc(C(F)(F)F)c(=O)[nH]2)cc1` [Example 1-28, 6-{(E)-2-Cyclopentyl-1-[4-(methylsulfonyl)phenyl]ethenyl}-3-(trifluoromethyl)pyridin-2(1H)-one] was tested. Which EC50 did it give?
Answer: Its EC50 is 500 to 3000 nM.

Question: `O=c1[nH]c(/C(=C/C2CCCC2)c2ccc(SC3CC3)cc2)ccc1-c1ccccc1` [Example 1-29, 6-{(E)-2-Cyclopentyl-1-[4-(cyclopropylsulfanyl)phenyl]ethenyl}-3-phenylpyridin-2(1H)-one] was tested. Which EC50 did it give?
Answer: The EC50 was 10 to 500 nM.

Question: How did the EC50 turn out when `O=c1[nH]c(/C(=C/C2CCCC2)c2ccc(S(=O)(=O)C3CC3)cc2)ccc1CO` [Example 1-30, 6-{(E)-2-Cyclopentyl-1-[4-(cyclopropylsulfonyl)phenyl]ethenyl}-3-(hydroxymethyl)pyridin-2(1H)-one] was run?
Answer: Its EC50 is 10 to 500 nM.

Question: How did the EC50 turn out when `CCN1CC(Sc2ccc(/C(=C\C3CCCC3)c3ccc(C)c(=O)[nH]3)cc2)C1` [Example 1-31, 6-[(E)-2-Cyclopentyl-1-{4-[(1-ethylazetidin-3-yl)sulfanyl]phenyl}ethenyl]-3-methylpyridin-2(1H)-one] was run?
Answer: Its EC50 is 500 to 3000 nM.

Question: For `CCN1CC(S(=O)(=O)c2ccc(/C(=C\C3CCCC3)c3ccc(C)c(=O)[nH]3)cc2)C1` [Example 1-32, 6-[(E)-2-Cyclopentyl-1-{4-[(1-ethylazetidin-3-yl)sulfonyl]phenyl}ethenyl]-3-methylpyridin-2(1H)-one], which EC50 is on record?
Answer: Its EC50 is 500 to 3000 nM.

Question: With `COC(=O)c1ccc(/C(=C\C2CCCC2)c2ccc(C)c(=O)[nH]2)cc1` [Example 1-33, Methyl 4-[(E)-2-cyclopentyl-1-(5-methyl-6-oxo-1,6-dihydropyridin-2-yl)ethenyl]benzoate] as the compound, how does the EC50 read?
Answer: Its EC50 is 500 to 3000 nM.

Question: For `CSc1ccc(/C(=C\C2CCCC2)c2ccc(C)c(=O)[nH]2)cn1` [Example 1-34, 6-{(E)-2-Cyclopentyl-1-[6-(methylsulfanyl)pyridin-3-yl]ethenyl}-3-methylpyridin-2(1H)-one], which EC50 is on record?
Answer: The EC50 was 500 to 3000 nM.

Question: How did the EC50 turn out when `Cc1ccc(/C(=C/C2CCCC2)c2ccc(S(C)(=O)=O)nc2)[nH]c1=O` [Example 1-35, 6-{(E)-2-Cyclopentyl-1-[6-(methylsulfonyl)pyridin-3-yl]ethenyl}-3-methylpyridin-2(1H)-one] was run?
Answer: The EC50 was 500 to 3000 nM.

Question: `Cc1ccc(/C(=C/CC2CCCC2)c2ccc(SC3CC3)cc2)[nH]c1=O` [Example 1-36, 6-{(1E)-3-Cyclopentyl-1-[4-(cyclopropylsulfanyl)phenyl]prop-1-en-1-yl}-3-methylpyridin-2(1H)-one] was tested. Which EC50 did it give?
Answer: Its EC50 is 10 to 500 nM.

Question: Which EC50 does the source give for `Cc1ccc(/C(=C/CC2CCCC2)c2ccc(S(=O)(=O)C3CC3)cc2)[nH]c1=O` [Example 1-37, 6-{(1E)-3-Cyclopentyl-1-[4-(cyclopropylsulfonyl)phenyl]prop-1-en-1-yl}-3-methylpyridin-2(1H)-one] here?
Answer: The EC50 was 10 to 500 nM.

Question: Which EC50 does the source give for `O=c1[nH]c(/C(=C/C2CCCC2)c2ccc(CCCCO)cc2)ccc1C(F)(F)F` [Example 1-38, 6-{(E)-2-Cyclopentyl-1-[4-(4-hydroxybutyl)phenyl]ethenyl}-3-(trifluoromethyl)pyridin-2(1H)-one] here?
Answer: Its EC50 is 500 to 3000 nM.

Question: With `CCN(CC)CCCCc1ccc(/C(=C\C2CCCC2)c2ccc(C(F)(F)F)c(=O)[nH]2)cc1` [Example 1-39, 6-[(E)-2-Cyclopentyl-1-{4-[4-(diethylamino)butyl]phenyl}ethenyl]-3-(trifluoromethyl)pyridin-2(1H)-one] as the compound, how does the EC50 read?
Answer: Its EC50 is 500 to 3000 nM.

Question: `O=c1[nH]c(/C(=C/C2CCCC2)c2ccc(S(=O)(=O)CCCO)cc2)ccc1C(F)(F)F` [Example 1-40, 6-[(E)-2-Cyclopentyl-1-{4-[(3-hydroxypropyl)sulfonyl]phenyl}ethenyl]-3-(trifluoromethyl)pyridin-2(1H)-one] was tested. Which EC50 did it give?
Answer: The EC50 was 500 to 3000 nM.

Question: Which EC50 does the source give for `CCN(CC)CCCS(=O)(=O)c1ccc(/C(=C\C2CCCC2)c2ccc(C(F)(F)F)c(=O)[nH]2)cc1` [Example 1-41, 6-[(E)-2-Cyclopentyl-1-(4-{[3-(diethylamino)propyl]sulfonyl}phenyl)ethenyl]-3-(trifluoromethyl)pyridin-2(1H)-one] here?
Answer: The EC50 was 500 to 3000 nM.

Question: Which EC50 does the source give for `CCN(CC)CCCC(=O)c1ccc(/C(=C\C2CCCC2)c2ccc(C(F)(F)F)c(=O)[nH]2)cc1` [Example 1-42, 6-[(E)-2-Cyclopentyl-1-{4-[4-(diethylamino)butanoyl]phenyl}ethenyl]-3-(trifluoromethyl)pyridin-2(1H)-one] here?
Answer: The EC50 was 500 to 3000 nM.

Question: `CCN(CC)CCCNc1ccc(/C(=C\C2CCCC2)c2ccc(C(F)(F)F)c(=O)[nH]2)cc1` [Example 1-43, 6-[(E)-2-Cyclopentyl-1-(4-{[3-(diethylamino)propyl]amino}phenyl)ethenyl]-3-(trifluoromethyl)pyridin-2(1H)-one] was tested. Which EC50 did it give?
Answer: Its EC50 is 3000 to 10000 nM.

Question: `CCNCCCOc1ccc(/C(=C\C2CCCC2)c2ccc(C3CC3)c(=O)[nH]2)cc1Cl` [Example 1-44, 6-[(E)-1-{3-Chloro-4-[3-(ethylamino)propoxy]phenyl}-2-cyclopentylethenyl]-3-cyclopropylpyridin-2(1H)-one] was tested. Which EC50 did it give?
Answer: Its EC50 is 500 to 3000 nM.

Question: For `CCN(CC)CCNC(=O)c1ccc(/C(=C\C2CCCC2)c2ccc(C3CC3)c(=O)[nH]2)cc1` [Example 1-45, 4-[(E)-2-Cyclopentyl-1-(5-cyclopropyl-6-oxo-1,6-dihydropyridin-2-yl)ethenyl]-N-[2-(diethylamino)ethyl]benzamide], which EC50 is on record?
Answer: The EC50 was 500 to 3000 nM.

Question: With `CN1CCN(S(=O)(=O)c2ccc(/C(=C\C3CCCC3)c3ccc(Cl)c(=O)[nH]3)cc2)CC1` [Example 1-46, 3-Chloro-6-[(E)-2-cyclopentyl-1-{4-[(4-methylpiperazin-1-yl)sulfonyl]phenyl}ethenyl]pyridin-2(1H)-one] as the compound, how does the EC50 read?
Answer: The EC50 was 500 to 3000 nM.

Question: For `CSc1ccc(/C(=C\C2CCOC2)c2ccc(C3CC3)c(=O)[nH]2)cc1` (centres unmarked) [Example 1-47, 3-Cyclopropyl-6-[(E)-1-[4-(methylsulfanyl)phenyl]-2-(tetrahydrofuran-3-yl)ethenyl]pyridin-2(1H)-one], which EC50 is on record?
Answer: The EC50 was 10 to 500 nM.

Question: Which EC50 does the source give for `O=c1[nH]c(/C(=C/C2CCOC2)c2ccc(SC3CC3)cc2)ccc1C(F)(F)F` (centres unmarked) [Example 1-48, 6-{(E)-1-[4-(Cyclopropylsulfanyl)phenyl]-2-(tetrahydrofuran-3-yl)ethenyl}-3-(trifluoromethyl)pyridin-2(1H)-one] here?
Answer: The EC50 was 500 to 3000 nM.

Question: For `CSc1ccc(/C(=C\CC2CCOC2)c2ccc(C3CC3)c(=O)[nH]2)cc1` (centres unmarked) [Example 1-49, 3-Cyclopropyl-6-{(1E)-1-[4-(methylsulfanyl)phenyl]-3-(tetrahydrofuran-3-yl)prop-1-en-1-yl}pyridin-2(1H)-one], which EC50 is on record?
Answer: Its EC50 is 500 to 3000 nM.

Question: `COc1ccc(/C(=C\CC2CCCO2)c2ccc(C3CC3)c(=O)[nH]2)cc1Cl` (centres unmarked) [Example 1-50, 6-[(1E)-1-(3-Chloro-4-methoxyphenyl)-3-(tetrahydrofuran-2-yl)prop-1-en-1-yl]-3-cyclopropylpyridin-2(1H)-one] was tested. Which EC50 did it give?
Answer: Its EC50 is 500 to 3000 nM.

Question: How did the EC50 turn out when `COc1ccc(/C(=C\C2CCOCC2)c2ccc(C3CC3)c(=O)[nH]2)cc1` [Example 1-51, 3-Cyclopropyl-6-[(E)-1-(4-methoxyphenyl)-2-(tetrahydro-2H-pyran-4-yl)ethenyl]pyridin-2(1H)-one] was run?
Answer: Its EC50 is 500 to 3000 nM.

Question: For `CCOc1ccc(/C(=C\C2CCOCC2)c2ccc(C3CC3)c(=O)[nH]2)cc1` [Example 1-52, 3-Cyclopropyl-6-[(E)-1-(4-ethoxyphenyl)-2-(tetrahydro-2H-pyran-4-yl)ethenyl]pyridin-2(1H)-one], which EC50 is on record?
Answer: The EC50 was 500 to 3000 nM.
